Results from US7390790B2, “Ring-substituted diphenylazetidinones, process for their preparation, medicaments comprising these compounds, and their use” (Sanofi-Aventis Deutschland GmbH, priority 2002, dated 2008).

Tested on: cholesterol absorption
Assay: Cholesterol absorption test: uptake of 14C-cholesterol by the liver
Format: in vivo, mouse
Conditions: dose at which the uptake of 14C-cholesterol by the liver was halved (50%), based on a control group; peroral test substance immediately prior to 14C-cholesterol test meal; interpolated from dose-effect curve
Source text: Effect of the compounds of the invention on cholesterol absorption and 3H-taurocholic acid excretion using fecal excrement of mice, rats or hamsters
NMRI mice, Wistar rats, or Golden Syrian hamsters (in groups of n=4-6) were kept in metabolic cages, where they were fed with a standard diet (Altromin, Lage (Lippe)). The afternoon prior to the administration of the radioactive tracers (14C-cholesterol), the feed was removed and the animals were adapted to grates.
Additionally, the animals were labeled s.c. with 3H-TCA (taurocholic acid) (for example 1 μCi/mouse up to 5 μCi/rat) 24 hours prior to the peroral administration of the test meal (14C-cholesterol in Intralipid® 20, Pharmacia-Upjohn).
Cholesterol absorption test: 0.25 ml/mouse Intralipid® 20 (Pharmacia-Upjohn) ((spiked with 0.25 μCi of 14C-cholesterol in 0.1 mg of cholesterol) was administered perorally by gavage.
Test substances were prepared separately in 0.5% methylcellulose (Sigma)/5% Solutol (BASF, Ludwigshafen) or a suitable vehicle.
The administration volume of the test substance was 0.5 ml/mouse. The test substance was administered immediately prior to the test meal (Intralipid labeled with 14C-cholesterol) (cholesterol absorption test).
The feces were collected over a period of 24 h. Fecal elimination of 14C-cholesterol and 3H-taurocholic acid (TCA) was determined after 24 hours.
The livers were removed and homogenized, and aliquots were incinerated in an oximate (Model 307, Packard) to determine the amount of 14C-cholesterol that had been taken up/absorbed.
The amount of ^14C-cholesterol taken up by the liver was based on the administered dose. The ED50 values were interpolated from a dose-effect curve as the dose at which the uptake of 14C-cholesterol by the liver was halved (50%), based on a control group.

Compound	ED50 (liver)
COc1ccc(C2C(CCC(O)c3ccc(F)cc3)C(=O)N2c2ccc(CNC(=O)c3ccc(Oc4ccc(C(=O)NCC(O)C(O)C(O)C(O)CO)cc4)cc3)cc2)cc1 (stereo not drawn) [Example I, 2,3,4,5,6-Pentahydroxyhexylamide of 4-(4-{4-[3-[3-(4-fluorophenyl)-3-hydroxypropyl]-2-(4-methoxyphenyl)-4-oxoazetidin-1-yl]benzylcarbamoyl}phenoxy)benzoic acid]	<0.1 mg/mouse
O=C(NCc1ccc(N2C(=O)C(CCC(O)c3ccccc3)C2c2ccccc2)cc1)c1ccc(Oc2ccc(C(=O)NCC(O)C(O)C(O)C(O)CO)cc2)cc1 (stereo not drawn) [Example II, 2,3,4,5,6-Pentahydroxyhexylamide of 4-(4-{4-[3-(3-hydroxy-3-phenylpropyl)-2-oxo-4-phenylazetidin-1-yl]benzylcarbamoyl}phenoxy)benzoic acid]	<1.0 mg/mouse
O=C1C(CCC(O)c2ccc(F)cc2)C(c2ccc(OCc3ccc(C[N+]45CCN(CC4)CC5)cc3)cc2)N1c1ccc(F)cc1.[Br-] (stereo not drawn) [Example IV, 1-[4-(4-{1-(4-Fluorophenyl)-3-[3-(4-fluorophenyl)-3-hydroxypropyl]-4-oxoazetidin-2-yl}phenoxymethyl)benzyl]-4-aza-1-azoniabicyclo[2.2.2]octane bromide]	<0.1 mg/mouse
O=C1C(CCC(O)c2ccc(F)cc2)C(c2ccc(OCc3ccc(CNCC(O)C(O)C(O)C(O)CO)cc3)cc2)N1c1ccc(F)cc1 (stereo not drawn) [Example V, 1-(4-Fluorophenyl)-3-[3-(4-fluorophenyl)-3-hydroxypropyl]-4-(4-{4-[(2,3,4,5,6-pentahydroxyhexylamine)methyl]benzyloxy}phenyl)azetidin-2-one]	<0.1 mg/mouse
O=C(Cc1ccc(C[N+]23CCN(CC2)CC3)cc1)NCc1ccc(C2C(CCC(O)c3ccc(F)cc3)C(=O)N2c2ccc(F)cc2)cc1.O=C([O-])C(F)(F)F (stereo not drawn) [Example XV, 1-{4-[(4-{1-(4-Fluorophenyl)-3-[3-(4-fluorophenyl)-3-hydroxypropyl]-4-oxoazetidin-2-yl}-benzylcarbamoyl)-methyl]-benzyl}-4-aza-1-azoniabicyclo[2.2.2]octane trifluoroacetate]	<1.0 mg/mouse
O=C1C(CCC(O)c2ccc(F)cc2)C(c2ccc(OCc3cccc(CNCC(O)C(O)C(O)C(O)CO)c3)cc2)N1c1ccc(F)cc1 (stereo not drawn) [IX, 1-(4-Fluorophenyl)-3-[3-(4-fluorophenyl)-3-hydroxypropyl]-4-(4-{3-[(2,3,4,5,6-pentahydroxyhexylamine)methyl]benzyloxy}phenyl)azetidin-2-one]	<0.1 mg/mouse
O=C1C(CCC(O)c2ccc(F)cc2)C(c2ccc(OCc3ccccc3C[N+]34CCN(CC3)CC4)cc2)N1c1ccc(F)cc1.[Br-] (stereo not drawn) [VI, 1-[2-(4-{1-(4-Fluorophenyl)-3-[3-(4-fluorophenyl)-3-hydroxypropyl]-4-oxoazetidin-2-yl}phenoxymethyl)benzyl]-4-aza-1-azoniabicyclo[2.2.2]octane bromide]	0.3 mg/mouse
O=C1C(CCC(O)c2ccc(F)cc2)C(c2ccc(OCc3ccccc3CNCC(O)C(O)C(O)C(O)CO)cc2)N1c1ccc(F)cc1 (stereo not drawn) [VII, 1-(4-Fluorophenyl)-3-[3-(4-fluorophenyl)-3-hydroxypropyl]-4-(4-{2-[(2,3,4,5,6-pentahydroxyhexylamine)methyl]benzyloxy}phenyl)azetidin-2-one]	<1.0 mg/mouse
O=C1C(CCC(O)c2ccc(F)cc2)C(c2ccc(OCc3cccc(C[N+]45CCN(CC4)CC5)c3)cc2)N1c1ccc(F)cc1.[Br-] (stereo not drawn) [VIII, 1-[3-(4-{1-(4-Fluorophenyl)-3-[3-(4-fluorophenyl)-3-hydroxypropyl]-4-oxoazetidin-2-yl}phenoxymethyl)benzyl]-4-aza-1-azoniabicyclo[2.2.2]octane bromide]	<1.0 mg/mouse
